# Target: T1, KRAS G12C and cRAF interaction (Homo sapiens, UniProt P01116, C118S/C51S/C80L/G12C)
# T1 construct: truncated version comprising amino acids 1-169
# Assay: Inhibition of KRAS G12C and cRAF binding (AlphaScreen)
# Type: biochemical
# Details: KRAS G12C (Cys-light, aa 1-169) preloaded with GMPPNP, cRaf RBD (aa 50-131), 2 hours incubation
# Method: The AlphaScreen technology was used to determine IC50s for compound inhibition of KRAS G12C (present as the Cys-light (C51S, C80L and C118S), truncated version comprising amino acids 1-169) and cRAF interaction. Compounds were diluted in 100% DMSO and each compound concentration was spotted at 200 nl/well onto low volume, white 384 well plates. The KRAS G12C contained a biotin-AviTag and the cRaf, as Ras-binding domain (amino acids 50-131, RBD), was GST-tagged. KRAS G12C was preloaded with the GTP analogue Guanosine 5′-[β,γ-imido]triphosphate (GMPPNP). The KRAS G12C was diluted in 25 mM Hepes, pH 7.4, 150 mM NaCl, 5 mM MgCl2, 0.01% TritonX-100 and 10 μM GMPPNP and added at 10 μl/well to compound-spotted plates resulting in a DMSO concentration of 2%. Plates were incubated for 2 hours. A mixture of RBD and the AlphaScreen streptavidin donor and glutathione acceptor beads diluted in 25 mM Hepes, pH 7.4, 150 mM NaCl, 5 mM MgCl2, 0.01% TritonX-100 and 2% DMSO was then added at 10 μl/well and incubated for 60-90 minutes before the samples were read for emission at 570 nm after excitation of the donor beads at 680 nm. All incubations were performed at room temperature. The final top compound concentration was 50 μM with 1:3 titrations for 10-point dose response curves. Final assay conditions were 0.5 nM KRAS G12C, 0.75 nM RBD and 5 μg/ml each of AlphaScreen donor and acceptor beads. IC50S were determined using nonlinear regression fit of [inhibitor] vs. response (4 parameters).
# A counter assay was also set up to rule out inhibitors of the AlphaScreen technology itself. Compound plates were incubated for 2 hours as above with buffer only.
# The AlphaScreen beads were added as above except biotin-AviTag-GST was substituted for the RBD. Samples were read and analyzed as above.
# T1 sequence (P01116 1-169 isoform P01116-2 G12C/C51S/C80L/C118S): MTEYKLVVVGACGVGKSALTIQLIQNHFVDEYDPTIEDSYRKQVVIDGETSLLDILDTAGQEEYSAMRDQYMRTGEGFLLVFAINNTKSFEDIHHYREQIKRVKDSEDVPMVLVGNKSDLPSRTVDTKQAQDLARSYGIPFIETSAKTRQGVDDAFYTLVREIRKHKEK
row,Structure (SMILES),IC50
1,"C=CC(=O)N1CCN(c2nc(OC[C@@]34CCCN3C[C@H](F)C4)nc3c(F)c(-c4cccc5cccc(Cl)c45)ncc23)CC12COC2 [Example 17, 1-(8-(7-(8-chloronaphthalen-1-yl)-8-fluoro-2-(((2R,7aS)-2-fluorotetrahydro-1H-pyrrolizin-7a(5H)-yl)methoxy)pyrido[4,3-d]pyrimidin-4-yl)-2-oxa-5,8-diazaspiro[3.5]nonan-5-yl) prop-2-en-1-one]",10 to 100 nM
2,"O=C(/C=C/CN1CCOCC1)N1CCN(c2nc(OC[C@@]34CCCN3C[C@H](F)C4)nc3c(F)c(-c4cccc5ccc(F)c(F)c45)ncc23)CC12COC2 [Example 18, (E)-1-(8-(7-(7,8-difluoronaphthalen-1-yl)-8-fluoro-2-(((2R,7aS)-2-fluorotetrahydro-1H-pyrrolizin-7a(5H)-yl)methoxy)pyrido[4,3-d]pyrimidin-4-yl)-2-oxa-5,8-diazaspiro[3.5]nonan-5-yl)-4-morpholinobut-2-en-1-one]",10 to 100 nM
3,"O=C(/C=C/CN1C[C@H]2C[C@@H]1CO2)N1CCN(c2nc(OC[C@@]34CCCN3C[C@H](F)C4)nc3c(F)c(-c4cccc5ccc(F)c(F)c45)ncc23)CC12COC2 [Example 19, (E)-4-((1R,4R)-2-oxa-5-azabicyclo[2.2.1]heptan-5-yl)-1-(8-(7-(7,8-difluoronaphthalen-1-yl)-8-fluoro-2-(((2R,7aS)-2-fluorotetrahydro-1H-pyrrolizin-7a(5H)-yl)methoxy)pyrido[4,3-d]pyrimidin-4-yl)-2-oxa-5,8-diazaspiro[3.5]nonan-5-yl) but-2-en-1-one]",< 10 nM
4,"O=C(/C=C/CN1CC2CC(C1)O2)N1CCN(c2nc(OC[C@@]34CCCN3C[C@H](F)C4)nc3c(F)c(-c4cccc5ccc(F)c(F)c45)ncc23)CC12COC2 [Example 20, (E)-4-(6-oxa-3-azabicyclo[3.1.1]heptan-3-yl)-1-(8-(7-(7,8-difluoronaphthalen-1-yl)-8-fluoro-2-(((2R,7aS)-2-fluorotetrahydro-1H-pyrrolizin-7a(5H)-yl)methoxy)pyrido[4,3-d]pyrimidin-4-yl)-2-oxa-5,8-diazaspiro[3.5]nonan-5-yl) but-2-en-1-one]",< 10 nM
5,"O=C(/C=C/CN1[C@@H]2CC[C@H]1COC2)N1CCN(c2nc(OC[C@@]34CCCN3C[C@H](F)C4)nc3c(F)c(-c4cccc5ccc(F)c(F)c45)ncc23)CC12COC2 [Example 21, (E)-4-((1R,5S)-3-oxa-8-azabicyclo[3.2.1]octan-8-yl)-1-(8-(7-(7,8-difluoronaphthalen-1-yl)-8-fluoro-2-(((2R,7aS)-2-fluorotetrahydro-1H-pyrrolizin-7a(5H)-yl)methoxy)pyrido[4,3-d]pyrimidin-4-yl)-2-oxa-5,8-diazaspiro[3.5]nonan-5-yl) but-2-en-1-one]",< 10 nM
6,"O=C(/C=C/CN1CC2CCC(C1)O2)N1CCN(c2nc(OC[C@@]34CCCN3C[C@H](F)C4)nc3c(F)c(-c4cccc5ccc(F)c(F)c45)ncc23)CC12COC2 [Example 22, (E)-4-(8-oxa-3-azabicyclo[3.2.1]octan-3-yl)-1-(8-(7-(7,8-difluoronaphthalen-1-yl)-8-fluoro-2-(((2R,7aS)-2-fluorotetrahydro-1H-pyrrolizin-7a(5H)-yl)methoxy)pyrido[4,3-d]pyrimidin-4-yl)-2-oxa-5,8-diazaspiro[3.5]nonan-5-yl) but-2-en-1-one]",< 10 nM
7,"O=C(/C=C/CN1[C@@H]2CC[C@H]1COC2)N1CCN(c2nc(OC[C@@]34CCCN3C[C@H](F)C4)nc3c(F)c(-c4cccc5ccc(F)c(Cl)c45)ncc23)CC12COC2 [Example 23, (E)-4-((1R,5S)-3-oxa-8-azabicyclo[3.2.1]octan-8-yl)-1-(8-(7-(8-chloro-7-fluoronaphthalen-1-yl)-8-fluoro-2-(((2R,7aS)-2-fluorotetrahydro-1H-pyrrolizin-7a(5H)-yl)methoxy)pyrido[4,3-d]pyrimidin-4-yl)-2-oxa-5,8-diazaspiro[3.5]nonan-5-yl) but-2-en-1-one]",< 10 nM
8,"O=C(/C=C/CN1[C@@H]2CC[C@H]1COC2)N1CCN(c2nc(OC[C@@]34CCCN3C[C@H](F)C4)nc3c(F)c(-c4cccc(Cl)c4C4CC4)ncc23)CC12COC2 [Example 24, (E)-4-((1R,5S)-3-oxa-8-azabicyclo[3.2.1]octan-8-yl)-1-(8-(7-(3-chloro-2-cyclopropylphenyl)-8-fluoro-2-(((2R,7aS)-2-fluorotetrahydro-1H-pyrrolizin-7a(5H)-yl)methoxy)pyrido[4,3-d]pyrimidin-4-yl)-2-oxa-5,8-diazaspiro[3.5]nonan-5-yl) but-2-en-1-one]",< 10 nM
9,"CN(C)C/C=C/C(=O)N1CCN(c2nc(OC[C@@]34CCCN3C[C@H](F)C4)nc3c(F)c(-c4cccc5cccc(Cl)c45)ncc23)CC12COC2 [Example 25, (E)-1-(8-(7-(8-chloronaphthalen-1-yl)-8-fluoro-2-(((2R,7aS)-2-fluorotetrahydro-1H-pyrrolizin-7a(5H)-yl)methoxy)pyrido[4,3-d]pyrimidin-4-yl)-2-oxa-5,8-diazaspiro[3.5]nonan-5-yl)-4-(dimethylamino)but-2-en-1-one]",10 to 100 nM
10,"O=C(/C=C/CN1[C@@H]2CC[C@H]1COC2)N1CCN(c2nc(OC[C@@]34CCCN3C[C@H](F)C4)nc3c(F)c(-c4ccccc4C(F)F)ncc23)CC12COC2 [Example 26, (E)-4-((1R,5S)-3-oxa-8-azabicyclo[3.2.1]octan-8-yl)-1-(8-(7-(2-(difluoromethyl)phenyl)-8-fluoro-2-(((2R,7aS)-2-fluorotetrahydro-1H-pyrrolizin-7a(5H)-yl)methoxy)pyrido[4,3-d]pyrimidin-4-yl)-2-oxa-5,8-diazaspiro[3.5]nonan-5-yl) but-2-en-1-one]",100 to 500 nM
11,"Cc1cc(/C=C/C(=O)N2CCN(c3nc(OC[C@@]45CCCN4C[C@H](F)C5)nc4c(F)c(-c5cccc6ccc(F)c(Cl)c56)ncc34)CC23COC3)nc(C)n1 [Example 27, (E)-1-(8-(7-(8-chloro-7-fluoronaphthalen-1-yl)-8-fluoro-2-(((2R,7aS)-2-fluorotetrahydro-1H-pyrrolizin-7a(5H)-yl)methoxy)pyrido[4,3-d]pyrimidin-4-yl)-2-oxa-5,8-diazaspiro[3.5]nonan-5-yl)-3-(2,6-dimethylpyrimidin-4-yl) prop-2-en-1-one]",10 to 100 nM
12,"Cc1cc(/C=C/C(=O)N2CCN(c3nc(OC[C@@]45CCCN4C[C@H](F)C5)nc4c(F)c(-c5cccc(Cl)c5C5CC5)ncc34)CC23COC3)nc(C)n1 [Example 28, (E)-1-(8-(7-(3-chloro-2-cyclopropylphenyl)-8-fluoro-2-(((2R,7aS)-2-fluorotetrahydro-1H-pyrrolizin-7a(5H)-yl)methoxy)pyrido[4,3-d]pyrimidin-4-yl)-2-oxa-5,8-diazaspiro[3.5]nonan-5-yl)-3-(2,6-dimethylpyrimidin-4-yl) prop-2-en-1-one]",≥ 500 nM
13,"O=C(/C=C/CN1[C@@H]2CC[C@H]1COC2)N1CCN(c2nc(OC[C@@]34CCCN3C[C@H](F)C4)nc3c(F)c(-c4cc(O)cc(Cl)c4C4CC4)ncc23)CC12COC2 [Example 29, (E)-4-((1R,5S)-3-oxa-8-azabicyclo[3.2.1]octan-8-yl)-1-(8-(7-(3-chloro-2-cyclopropyl-5-hydroxyphenyl)-8-fluoro-2-(((2R,7aS)-2-fluorotetrahydro-1H-pyrrolizin-7a(5H)-yl)methoxy)pyrido[4,3-d]pyrimidin-4-yl)-2-oxa-5,8-diazaspiro[3.5]nonan-5-yl) but-2-en-1-one]",< 10 nM
14,"O=C(/C=C/CN1CCOCC1)N1CCN(c2nc(OC[C@@]34CCCN3C[C@H](F)C4)nc3c(F)c(-c4cc(O)cc(Cl)c4C4CC4)ncc23)CC12COC2 [Example 30, (E)-1-(8-(7-(3-chloro-2-cyclopropyl-5-hydroxyphenyl)-8-fluoro-2-(((2R,7aS)-2-fluorotetrahydro-1H-pyrrolizin-7a(5H)-yl)methoxy)pyrido[4,3-d]pyrimidin-4-yl)-2-oxa-5,8-diazaspiro[3.5]nonan-5-yl)-4-morpholinobut-2-en-1-one]",< 10 nM
15,"C=CC(=O)N1CCN(c2nc(OC[C@@]34CCCN3C[C@H](F)C4)nc3c(F)c(-c4cc(O)cc(Cl)c4C4CC4)ncc23)CC12COC2 [Example 31, 1-(8-(7-(3-chloro-2-cyclopropyl-5-hydroxyphenyl)-8-fluoro-2-(((2R,7aS)-2-fluorotetrahydro-1H-pyrrolizin-7a(5H)-yl)methoxy)pyrido[4,3-d]pyrimidin-4-yl)-2-oxa-5,8-diazaspiro[3.5]nonan-5-yl) prop-2-en-1-one]",< 10 nM
16,"Cc1cc(/C=C/C(=O)N2CCN(c3nc(OC[C@@]45CCCN4C[C@H](F)C5)nc4c(F)c(-c5cccc6ccc(F)c(F)c56)ncc34)CC23COC3)nc(C)n1 [Example 32, (E)-1-(8-(7-(7,8-difluoronaphthalen-1-yl)-8-fluoro-2-(((2R,7aS)-2-fluorotetrahydro-1H-pyrrolizin-7a(5H)-yl)methoxy)pyrido[4,3-d]pyrimidin-4-yl)-2-oxa-5,8-diazaspiro[3.5]nonan-5-yl)-3-(2,6-dimethylpyrimidin-4-yl) prop-2-en-1-one]",10 to 100 nM
